One data set relates to C. albicans. Put plainly: Antimicrobial properties of F6H8, Ph. Eur. 5.1.3 method. It is filed as cell-based. The conditions noted are these: for Count: inoculum 9 × 10^5. On the procedure:
(§1) The antimicrobial properties of F6H8 were evaluated according to the Ph. Eur. 5.1.3 method.

The next data set has as its system A. brasiliensis. The description is as above. The class given is cell-based. The conditions noted are these: for Count: inoculum 7 × 10^5. On the procedure:
as §1

Another data set relates to E. coli. Described as above. The class given is cell-based. As to conditions: for Count: inoculum 2 × 10^5. On the procedure: as §1
The next data set concerns P. aeruginosa. Described as above. The class given is cell-based. As to conditions: for Count: inoculum 8 × 10^5. On the procedure: as §1
The subject of a further data set is S. aureus. The data set is described as above. The class given is cell-based. As to conditions: for Count: inoculum 2 × 10^5.
Data set [1] concerns viable bacteria; yeasts and molds. Put plainly: Antimicrobial effectiveness acceptance criteria, Ph. Eur. 5.1.3 (overall). It is filed as cell-based. The conditions noted are these: bacteria: >=2 log reduction at 6 hours, >=3 log at 24 hours, no recovery at 28 days; yeasts and molds: >=2 log at 7 days, no increase at 28 days; no extrinsic preservative. On the procedure:
as §1

The nature of data set [2]: Solubility of lifitegrast free acid in F6H8. It is filed as physicochemical. As to conditions: lifitegrast free acid added to F6H8 at 0.25% to 10% (w/w); forms a suspension. From the text:
The lifitegrast is in soluble in F6H8 and forms a suspension. When left standing the lifitegrast settles to form a sediment.

Take `CCCCCCCCC(F)(F)C(F)(F)C(F)(F)C(F)(F)C(F)(F)C(F)(F)F` [F6H8, 1-perfluorohexyloctane]: the Log reduction is recorded as 2.3 in the data set with C. albicans (0 hour); 6.0 in the data set with C. albicans (7 days); 6.0 in the data set on C. albicans (28 days); 0.9 with A. brasiliensis (0 hour); 2.8 in the data set on A. brasiliensis (7 days); 2.5 in the data set on A. brasiliensis (28 days). In addition, the Log reduction in the data set on E. coli (0 hour) amounted to 1.0; in the data set on E. coli (6 hours) it was 5.3; in the data set with E. coli (24 hours), 5.3; in the data set with E. coli (28 days) it was 5.3; with P. aeruginosa (0 hour), 1.2; in the data set with P. aeruginosa (6 hours), 3.3. The Log reduction in the data set with P. aeruginosa (24 hours) is 5.0; with P. aeruginosa (28 days), 5.9; in the data set with S. aureus (0 hour), 4.1; in the data set with S. aureus (6 hours) it was 5.3; in the data set on S. aureus (24 hours) it was 5.3; in the data set with S. aureus (28 days), 5.3. The Count with C. albicans (0 hour) was 5 × 10^3; in the data set on C. albicans (7 days) it was 0; in the data set on C. albicans (28 days) it was 0; with A. brasiliensis (0 hour) it was 8 × 10^4; in the data set on A. brasiliensis (7 days), 1 × 10^3; in the data set on A. brasiliensis (28 days) it was 2 × 10^3. Further, the Count in the data set with E. coli (0 hour) is reported as 2 × 10^4; in the data set with E. coli (6 hours), 0; in the data set on E. coli (24 hours), 0; in the data set with E. coli (28 days), 0; with P. aeruginosa (0 hour) it was 5 × 10^4; in the data set with P. aeruginosa (6 hours) it was 4 × 10^2. Also, the Count in the data set with P. aeruginosa (24 hours) was found to be 8; in the data set with P. aeruginosa (28 days), 0; with S. aureus (6 hours) it was 0; in the data set on S. aureus (24 hours) it was 0; in the data set with S. aureus (28 days) it was 0. In data set [1], the “Acceptance criteria of the antimicrobial effectiveness assay” value is recorded as “meets the acceptance criteria”.
Take `CS(=O)(=O)c1cccc(C[C@H](NC(=O)c2c(Cl)cc3c(c2Cl)CCN(C(=O)c2ccc4ccoc4c2)C3)C(=O)O)c1` [lifitegrast]: the “Solubility in F6H8” value in data set [2] was “in soluble”.

Values taken from patent US20250161294A1, “COMPOSITIONS AND METHODS FOR TREATMENT OF OCULAR DISORDERS” (Bausch + Lomb Ireland Limited, priority 2023, published 2025).
